Data on four compounds can be found in PMC9811652 (RSC Advances, 2023).

The test system of assay [1] is AChE. The note with it: at 200 μM; cited from earlier work.
Assay [2] deals with BChE. The following applies: at 200 μM; cited from earlier work.
Assay [3] addresses human serum acetylcholinesterase (Homo sapiens, UniProt P22303). The assay is described as follows: biochemical.

Sequence of human serum acetylcholinesterase (P22303 32-574 limits assumed): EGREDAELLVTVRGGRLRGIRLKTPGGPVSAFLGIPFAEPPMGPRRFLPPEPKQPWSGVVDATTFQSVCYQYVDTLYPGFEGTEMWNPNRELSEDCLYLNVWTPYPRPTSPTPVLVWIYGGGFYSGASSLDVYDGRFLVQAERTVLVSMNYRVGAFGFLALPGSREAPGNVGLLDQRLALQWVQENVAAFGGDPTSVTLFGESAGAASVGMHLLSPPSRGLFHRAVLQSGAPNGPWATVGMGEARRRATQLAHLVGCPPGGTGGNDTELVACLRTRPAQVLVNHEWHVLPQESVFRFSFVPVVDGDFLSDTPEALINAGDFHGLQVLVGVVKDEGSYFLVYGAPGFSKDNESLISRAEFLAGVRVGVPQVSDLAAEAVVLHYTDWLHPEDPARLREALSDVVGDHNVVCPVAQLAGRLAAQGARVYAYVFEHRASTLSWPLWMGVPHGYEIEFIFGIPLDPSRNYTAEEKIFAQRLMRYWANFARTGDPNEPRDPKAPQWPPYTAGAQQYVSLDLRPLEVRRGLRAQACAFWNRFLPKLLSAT

As to `COc1ccc2c3c1O[C@H]1C[C@@H](O)C=C[C@@]31CCN(C)C2` [Galantamine], the “percentage inhibition, AChE” value in assay [1] is 78.76 ± 0.94%. Besides, the “percentage inhibition, BChE” value in assay [2] was 79.72 ± 0.33%.

In turn, `COc1c(OC)c(OC)c2c(-c3ccccc3)c(-c3ccccc3)[nH]c2c1CNc1ccccc1` [indole amine 23, 4,5,6-Trimethoxy-2,3-diphenyl-7-phenylaminomethyl-(1H)-indole] had an IC50 in assay [3] of 12.1 µM.

Compound `COc1c(OC)c(OC)c2c(-c3ccccc3)c(-c3ccccc3)[nH]c2c1CNc1cccc([N+](=O)[O-])c1` [indole amine 24, 4,5,6-Trimethoxy-7-(3′-nitrophenylaminomethyl)-2,3-diphenyl-(1H)-indole] yielded a 50% inhibitory concentration (IC50) in assay [3] of 4.66 µM.

Consider `COc1c(OC)c(OC)c2c(-c3ccccc3)c(-c3ccccc3)[nH]c2c1CNc1ccc([N+](=O)[O-])cc1` [indole amine 25, 4,5,6-Trimethoxy-7-(4′-nitrophenylaminomethyl)-2,3-diphenyl-(1H)-indole], for which the 50% inhibitory concentration (IC50) in assay [3] is 4.28 µM.
